The record followed here is patent publication US8846719B2, “Isoxazolo-pyridine derivatives” (Roche Palo Alto LLC, priority 2007, dated 2014).

For one assay, the target named is human GABA A receptor α5β3γ2 (Homo sapiens (Human), UniProt P18507+P31644). The assay is described as follows: [3H]flumazenil competition binding assay, human GABA A α5β3γ2 receptors expressed in HEK293 cells.
Details: not given
The procedure: The affinity of compounds at GABA A receptor subtypes was measured by competition for [3H]flumazenil (85 Ci/mmol; Roche) binding to HEK293 cells expressing rat (stably transfected) or human (transiently transfected) receptors of composition α1β3γ2, α2β3γ2, α3β3γ2 and α5β3γ2.
Cell pellets were suspended in Krebs-tris buffer (4.8 mM KCl, 1.2 mM CaCl2, 1.2 mM MgCl2, 120 mM NaCl, 15 mM Tris; pH 7.5; binding assay buffer), homogenized by polytron for ca. 20 sec on ice and centrifuged for 60 min at 4° C. (50000 g; Sorvall, rotor: SM24=20000 rpm). The cell pellets were resuspended in Krebs-tris buffer and homogenized by polytron for ca. 15 sec on ice. Protein was measured (Bradford method, Bio-Rad) and aliquots of 1 mL were prepared and stored at −80° C.
Assays were incubated to equilibrium for 1 hour at 4° C. and harvested onto GF/C uni-filters (Packard) by filtration using a Packard harvester and washing with ice-cold wash buffer (50 mM Tris; pH 7.5). After drying, filter-retained radioactivity was detected by liquid scintillation counting. Ki values were calculated using Excel-Fit (Microsoft) and are the means of two determinations.
Consider `Cc1onc(-c2ccccc2)c1COc1cc(C2=CCN(C)CC2)ccn1` [Example 57, 1-Methyl-2′-(5-methyl-3-phenyl-isoxazol-4-ylmethoxy)-1,2,3,6-tetrahydro-[4,4′]bipyridinyl], for which the Ki was determined as 32.1 nM.

The assay is the same for the next values; noted with them: human receptor; displacement of [3H]flumazenil (0.5 nM); means of two determinations; read-out: hKi GABAAa5.
In the case of `Cc1onc(-c2ccccc2)c1COc1cc(OCc2ccccc2)ccn1` [Example 56, 4-Benzyloxy-2-(5-methyl-3-phenyl-isoxazol-4-ylmethoxy)-pyridine], the Ki is 35.1 nM.

On to `Cc1onc(-c2ccccc2)c1COc1cc(C(=O)NCC(F)(F)F)ccn1` [Example 58, 2-(5-Methyl-3-phenyl-isoxazol-4-ylmethoxy)-N-(2,2,2-trifluoro-ethyl)-isonicotinamide], for which the Ki is 37.8 nM.

Regarding `Cc1onc(-c2ccccc2)c1COc1cc(C(=O)NC2CCOCC2)ccn1` [Example 59, 2-(5-Methyl-3-phenyl-isoxazol-4-ylmethoxy)-N-(tetrahydro-pyran-4-yl)-isonicotinamide], the Ki was 55.4 nM.

`Cc1nc(OCc2c(-c3ccccc3)noc2C)ccc1C(=O)NC1CCOCC1` [Example 60, 2-Methyl-6-(5-methyl-3-phenyl-isoxazol-4-ylmethoxy)-N-(tetrahydro-pyran-4-yl)-nicotinamide]: the Ki stood at 38.7 nM.

Consider `Cc1onc(-c2ccccc2)c1COc1cc(C(F)(F)F)c(C(=O)O)cn1` [Example 61, 6-(5-Methyl-3-phenyl-isoxazol-4-ylmethoxy)-4-trifluoromethyl-nicotinic acid], for which the Ki was 18.4 nM.

Regarding `Cc1onc(-c2ccccc2)c1COc1cc(C(F)(F)F)c(C(=O)NC(C)C)cn1` [Example 62, N-Isopropyl-6-(5-methyl-3-phenyl-isoxazol-4-ylmethoxy)-4-trifluoromethyl-nicotinamide], the Ki came out at 14.6 nM.

With `Cc1onc(-c2ccccc2)c1COc1cc(C(F)(F)F)c(C(=O)NC2CCOCC2)cn1` [Example 63, 6-(5-Methyl-3-phenyl-isoxazol-4-ylmethoxy)-N-(tetrahydro-pyran-4-yl)-4-trifluoromethyl-nicotinamide], the Ki was found to be 10.7 nM.

For the compound `COC(=O)c1cnc(OCc2c(-c3ccccc3)noc2C)c(Br)c1` [Example 64, 5-Bromo-6-(5-methyl-3-phenyl-isoxazol-4-ylmethoxy)-nicotinic acid methyl ester], the Ki came to 34.4 nM.

Consider `Cc1onc(-c2ccccc2)c1COc1ncc(C(=O)NC2CCOCC2)cc1Br` [Example 65, 5-Bromo-6-(5-methyl-3-phenyl-isoxazol-4-ylmethoxy)-N-(tetrahydro-pyran-4-yl)-nicotinamide], for which the Ki amounted to 24.4 nM.

Consider `Cc1cc(C(=O)NC2CCOCC2)cnc1OCc1c(-c2ccccc2)noc1C` [Example 66, 5-Methyl-6-(5-methyl-3-phenyl-isoxazol-4-ylmethoxy)-N-(tetrahydro-pyran-4-yl)-nicotinamide], for which the Ki was determined as 1.4 nM.

In the case of `Cc1nc(OCc2c(-c3ccccc3)noc2C)c(Br)cc1C(=O)NC1CCOCC1` [Example 67, 5-Bromo-2-methyl-6-(5-methyl-3-phenyl-isoxazol-4-ylmethoxy)-N-(tetrahydro-pyran-4-yl)-nicotinamide], the Ki came out at 47.3 nM.

Consider `Cc1onc(-c2ccccc2)c1COc1ncc(C(=O)NC(C)C)cc1Br` [Example 68, 5-Bromo-N-isopropyl-6-(5-methyl-3-phenyl-isoxazol-4-ylmethoxy)-nicotinamide], for which the Ki was 18.6 nM.

Regarding `Cc1cc(C(=O)NC(C)C)cnc1OCc1c(-c2ccccc2)noc1C` [Example 69, N-Isopropyl-5-methyl-6-(5-methyl-3-phenyl-isoxazol-4-ylmethoxy)-nicotinamide], the Ki stood at 2.95 nM.

With `Cc1onc(-c2ccccc2)c1COc1ccc(C(=O)N(C)C(C)C)cn1` [Example 70, N-Isopropyl-N-methyl-6-(5-methyl-3-phenyl-isoxazol-4-ylmethoxy)-nicotinamide], the Ki stood at 53.1 nM.

Take `Cc1onc(-c2ccccc2)c1COc1ccc(C(=O)N2CCOCC2(C)C)cn1` [Example 71, (3,3-Dimethyl-morpholin-4-yl)-[6-(5-methyl-3-phenyl-isoxazol-4-ylmethoxy)-pyridin-3-yl]-methanone]: the Ki is 80.8 nM.

Regarding `CCOC(=O)c1ccc(OCc2c(-c3ccccc3)noc2C)nc1C` [Example 72, 2-Methyl-6-(5-methyl-3-phenyl-isoxazol-4-ylmethoxy)-nicotinic acid ethyl ester], the Ki came to 19.3 nM.

As for `Cc1onc(-c2ccccc2)c1COc1cccc(C#N)n1` [Example 73, 6-(5-Methyl-3-phenyl-isoxazol-4-ylmethoxy)-pyridine-2-carbonitrile], the Ki stood at 20.9 nM.

Turning to `Cc1onc(-c2ccccc2)c1COc1ccc(C2(O)COC2)cn1` [Example 74, 3-[6-(5-Methyl-3-phenyl-isoxazol-4-ylmethoxy)-pyridin-3-yl]-oxetan-3-ol], the Ki was 28.1 nM.

With `Cc1onc(-c2ccccc2)c1COc1ccc(C(=O)NCC2CCCOC2)cn1` (centres unmarked) [Example 76, 6-(5-Methyl-3-phenyl-isoxazol-4-ylmethoxy)-N-(tetrahydro-pyran-3-ylmethyl)-nicotinamide], the Ki is 11.7 nM.

For `Cc1onc(-c2ccccc2)c1COc1ccc(C(=O)NCC2CCOC2)cn1` (centres unmarked) [Example 77, 6-(5-Methyl-3-phenyl-isoxazol-4-ylmethoxy)-N-(tetrahydro-furan-3-ylmethyl)-nicotinamide], the Ki is 4.6 nM.

As for `Cc1onc(-c2ccccc2)c1COc1ccc(C(=O)N2CCCn3nccc32)cn1` [Example 78, (6,7-Dihydro-5H-pyrazolo[1,5-a]pyrimidin-4-yl)-[6-(5-methyl-3-phenyl-isoxazol-4-ylmethoxy)-pyridin-3-yl]-methanone], the Ki is 40.7 nM.

For the compound `Cc1onc(-c2ccccc2)c1COc1ccc(C(=O)NC2COCc3ccccc32)cn1` (centres unmarked) [Example 79, N-Isochroman-4-yl-6-(5-methyl-3-phenyl-isoxazol-4-ylmethoxy)-nicotinamide], the Ki was 68.1 nM.

Regarding `Cc1onc(-c2ccccc2)c1COc1ccc(C(=O)NCc2cc(C(C)C)no2)cn1` [Example 80, N-(3-Isopropyl-isoxazol-5-ylmethyl)-6-(5-methyl-3-phenyl-isoxazol-4-ylmethoxy)-nicotinamide], the Ki was found to be 44.4 nM.

On to `Cc1onc(-c2ccccc2)c1COc1ccc(C(=O)N2CCC23COC3)cn1` [Example 82, [6-(5-Methyl-3-phenyl-isoxazol-4-ylmethoxy)-pyridin-3-yl]-(6-oxa-1-aza-spiro[3.3]hept-1-yl)-methanone], for which the Ki is 16.8 nM.

Turning to `Cc1onc(-c2ccccc2)c1COc1ccc(C(=O)OC(C)C)cn1` [Example 83, 6-(5-Methyl-3-phenyl-isoxazol-4-ylmethoxy)-nicotinic acid isopropyl ester], the Ki came to 4.7 nM.

With `Cc1onc(-c2ccccc2F)c1COc1ccc(C(=O)NCC(F)(F)F)cn1` [Example 84, 6-[3-(2-Fluoro-phenyl)-5-methyl-isoxazol-4-ylmethoxy]-N-(2,2,2-trifluoro-ethyl)-nicotinamide], the Ki turned out to be 4.5 nM.

Take `Cc1onc(-c2ccccc2F)c1COc1ccc(C(=O)NCC(F)(F)C(F)(F)F)cn1` [Example 85, 6-[3-(2-Fluoro-phenyl)-5-methyl-isoxazol-4-ylmethoxy]-N-(2,2,3,3,3-pentafluoro-propyl)-nicotinamide]: the Ki turned out to be 9.8 nM.

`Cc1onc(-c2ccccc2F)c1COc1ccc(C(=O)NC(C)C)cn1` [Example 86, 6-[3-(2-Fluoro-phenyl)-5-methyl-isoxazol-4-ylmethoxy]-N-isopropyl-nicotinamide]: the Ki is 3.6 nM.
